We go through 24 compounds from US20250346585A1 (Alexion Pharmaceuticals, Inc., priority 2022, published 2025).

One assay deals with Human complement C1s enzyme (Homo sapiens (Human), UniProt P09871). Briefly: Human C1s enzyme assay. The conditions noted are these: Human C1s enzyme assay of Example 3; read-out: IC50 (Stars). Format: biochemical. A digest of the protocol: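 Purified serum-derived human C1s (1.16 nM final) preincubated 5 min at room temperature with compound in 50 mM Tris, 1 M NaCl, pH 7.5. Z-L-Lys-SBzl thioester substrate and DTNB added (100 μM each, final); A405 read every 30 s for 30 min. IC50 from nonlinear regression of reaction rates against compound concentration.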
Human complement C1s enzyme, sequence (P09871 438-688 limits assumed): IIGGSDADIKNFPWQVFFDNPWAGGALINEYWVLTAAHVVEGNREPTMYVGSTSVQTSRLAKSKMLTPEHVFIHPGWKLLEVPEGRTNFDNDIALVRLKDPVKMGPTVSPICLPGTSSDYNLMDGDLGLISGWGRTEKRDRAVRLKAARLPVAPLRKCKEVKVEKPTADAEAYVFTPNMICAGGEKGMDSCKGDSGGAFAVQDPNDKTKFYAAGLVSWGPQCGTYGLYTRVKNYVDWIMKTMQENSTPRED
Human complement C1s enzyme, sequence (P09871 16-437 partner limits assumed): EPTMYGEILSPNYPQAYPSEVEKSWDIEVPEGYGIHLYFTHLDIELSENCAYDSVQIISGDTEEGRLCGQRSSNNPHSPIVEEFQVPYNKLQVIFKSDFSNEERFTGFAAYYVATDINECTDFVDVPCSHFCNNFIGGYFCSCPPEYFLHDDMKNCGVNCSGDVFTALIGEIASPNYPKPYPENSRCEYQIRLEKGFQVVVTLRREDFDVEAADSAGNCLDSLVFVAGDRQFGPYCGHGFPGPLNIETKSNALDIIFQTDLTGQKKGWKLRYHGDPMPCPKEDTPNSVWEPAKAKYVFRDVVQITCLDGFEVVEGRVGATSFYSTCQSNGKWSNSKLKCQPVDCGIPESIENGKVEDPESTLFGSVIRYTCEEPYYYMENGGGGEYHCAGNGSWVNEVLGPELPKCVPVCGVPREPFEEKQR
For `Nc1ncc(-c2csc(CNC(=O)[C@@H]3CC4(CN3C(=O)CNC(=O)c3ccc(Oc5ccc(F)cc5)cc3)OCCO4)c2)s1` [Compound 187, (S)—N-((4-(2-aminothiazol-5-yl)thiophen-2-yl)methyl)-7-((4-(4-fluorophenoxy)benzoyl)glycyl)-1,4-dioxa-7-azaspiro[4.4]nonane-8-carboxamide], the IC50 was greater than 1000 nM.

For `N=C(N)c1csc(CNC(=O)[C@@H]2CC3(CN2C(=O)CNC(=O)c2ccc(-c4cc(F)ccc4F)cc2)OCCO3)c1` [Compound 188, (S)—N-((4-carbamimidoylthiophen-2-yl)methyl)-7-((2′,5′-difluoro-[1,1′-biphenyl]-4-carbonyl)glycyl)-1,4-dioxa-7-azaspiro[4.4]nonane-8-carboxamide], the IC50 is less than 100 nM.

Consider `N=C(N)c1csc(CNC(=O)[C@@H]2CC3(CN2C(=O)CNC(=O)c2ccc(-c4cc(F)cc(F)c4)cc2)OCCO3)c1` [Compound 189, (S)—N-((4-carbamimidoylthiophen-2-yl)methyl)-7-((3′,5′-difluoro-[1,1′-biphenyl]-4-carbonyl)glycyl)-1,4-dioxa-7-azaspiro[4.4]nonane-8-carboxamide], for which the IC50 is less than 100 nM.

On to `Cc1ccc2c(c1)C(F)(F)c1ccc(C(=O)NCC(=O)N3CC4(C[C@H]3C(=O)N[C@H](C)c3cc(C(=N)N)cs3)OCCO4)cc1-2` [Compound 190, (S)—N—((R)-1-(4-carbamimidoylthiophen-2-yl)ethyl)-7-((9,9-difluoro-7-methyl-9H-fluorene-3-carbonyl)glycyl)-1,4-dioxa-7-azaspiro[4.4]nonane-8-carboxamide], for which the IC50 is less than 100 nM.

As for `COc1ccc2c(c1)C(F)(F)c1ccc(C(=O)NCC(=O)N3CC4(C[C@H]3C(=O)N[C@H](C)c3cc(C(=N)N)cs3)OCCO4)cc1-2` [Compound 191, (S)—N—((R)-1-(4-carbamimidoylthiophen-2-yl)ethyl)-7-((9,9-difluoro-7-methoxy-9H-fluorene-3-carbonyl)glycyl)-1,4-dioxa-7-azaspiro[4.4]nonane-8-carboxamide], the IC50 is less than 100 nM.

As for `C[C@@H](NC(=O)[C@@H]1CC2(CN1C(=O)CNC(=O)c1ccc3c(c1)-c1ccc(Cl)cc1C3(F)F)OCCO2)c1cc(C(=N)N)cs1` [Compound 192, (8S)—N-[(1R)-1-(4-carbamimidoylthiophen-2-yl)ethyl]-7-{2-[(7-chloro-9,9-difluorofluoren-3-yl)formamido]acetyl}-1,4-dioxa-7-azaspiro[4.4]nonane-8-carboxamide], the IC50 was less than 100 nM.

For the compound `C[C@@H](NC(=O)[C@@H]1CC2(CN1C(=O)CNC(=O)c1ccc3c(c1)-c1ccc(F)cc1C3(F)F)OCCO2)c1cc(C(=N)N)cs1` [Compound 193, (8S)—N-[(1R)-1-(4-carbamimidoylthiophen-2-yl)ethyl]-7-{2-[(7,9,9-trifluorofluoren-3-yl)formamido]acetyl}-1,4-dioxa-7-azaspiro[4.4]nonane-8-carboxamide], the IC50 is less than 100 nM.

Consider `C[C@@H](NC(=O)[C@@H]1C[C@](F)(COCCCCCCCCCC(=O)O)CN1C(=O)CNC(=O)c1ccc2c(c1)-c1ccccc1C2(F)F)c1cc(C(=N)N)cs1` [Compound 194, 10-(((3R,5S)-5-(((R)-1-(4-carbamimidoylthiophen-2-yl)ethyl)carbamoyl)-1-((9,9-difluoro-9H-fluorene-3-carbonyl)glycyl)-3-fluoropyrrolidin-3-yl)methoxy)decanoic acid], for which the IC50 was less than 100 nM.

As for `N=C(N)c1csc(CNC(=O)[C@@H]2CC3(CN2C(=O)CNC(=O)c2ccc(-c4cnc5[nH]ccc5c4)cc2)OCCO3)c1` [Compound 195, (S)-7-((4-(1H-pyrrolo[2,3-b]pyridin-5-yl)benzoyl)glycyl)-N-((4-carbamimidoylthiophen-2-yl)methyl)-1,4-dioxa-7-azaspiro[4.4]nonane-8-carboxamide], the IC50 was less than 100 nM.

`N=C(N)c1csc(CNC(=O)[C@@H]2CC3(CN2C(=O)CNC(=O)c2ccc(-c4c(F)cccc4F)cc2)OCCO3)c1` [Compound 196, (S)—N-((4-carbamimidoylthiophen-2-yl)methyl)-7-((2′,6′-difluoro-[1,1′-biphenyl]-4-carbonyl)glycyl)-1,4-dioxa-7-azaspiro[4.4]nonane-8-carboxamide]: the half-inhibitory concentration (IC50) is less than 100 nM.

Regarding `Cc1cccc(C)c1-c1ccc(C(=O)NCC(=O)N2CC3(C[C@H]2C(=O)NCc2cc(C(=N)N)cs2)OCCO3)cc1` [Compound 197, (S)—N-((4-carbamimidoylthiophen-2-yl)methyl)-7-((2′,6′-dimethyl-[1,1′-biphenyl]-4-carbonyl)glycyl)-1,4-dioxa-7-azaspiro[4.4]nonane-8-carboxamide], the half-maximal inhibitory concentration (IC50) is less than 100 nM.

The same assay, now with this note: Human complement C1s enzyme 1.16 nM, substrate Z-L-Lys-SBzl 100 μM, assay of Example 3; read-out: IC50 (Stars).
Take `N=C(N)c1csc(CNC(=O)[C@@H]2CC3(CN2C(=O)CNC(=O)c2ccc(-c4cnn(Cc5ccccc5)c4)cc2)OCCO3)c1` [Compound 198, (S)-7-((4-(1-benzyl-1H-pyrazol-4-yl)benzoyl)glycyl)-N-((4-carbamimidoylthiophen-2-yl)methyl)-1,4-dioxa-7-azaspiro[4.4]nonane-8-carboxamide]: the IC50 was less than 100 nM.

`Cc1cc(-c2ccc(C(=O)NCC(=O)N3CC4(C[C@H]3C(=O)NCc3cc(C(=N)N)cs3)OCCO4)cc2)ccc1F` [Compound 199, (S)—N-((4-carbamimidoylthiophen-2-yl)methyl)-7-((4′-fluoro-3′-methyl-[1,1′-biphenyl]-4-carbonyl)glycyl)-1,4-dioxa-7-azaspiro[4.4]nonane-8-carboxamide]: the IC50 was less than 100 nM.

In the case of `C[C@@H](NC(=O)[C@@H]1CC2(CN1C(=O)CNC(=O)c1ccc3c(c1)-c1ccccc1C3(F)F)OCCO2)c1cc(C(N)=O)cs1` [Compound 200, (S)—N—((R)-1-(4-carbamoylthiophen-2-yl)ethyl)-7-((9,9-difluoro-9H-fluorene-3-carbonyl)glycyl)-1,4-dioxa-7-azaspiro[4.4]nonane-8-carboxamide], the IC50 is greater than 1000 nM.

Regarding `C[C@@H](NC(=O)[C@@H]1C[C@](F)(COCCCCCC(=O)O)CN1C(=O)CNC(=O)c1ccc2c(c1)-c1ccccc1C2(F)F)c1cc(C(=N)N)cs1` [Compound 201, 6-(((3R,5S)-5-(((R)-1-(4-carbamimidoylthiophen-2-yl)ethyl)carbamoyl)-1-((9,9-difluoro-9H-fluorene-3-carbonyl)glycyl)-3-fluoropyrrolidin-3-yl)methoxy)hexanoic acid], the IC50 was less than 100 nM.

Take `C[C@@H](NC(=O)[C@@H]1C[C@@H](F)CN1C(=O)CNC(=O)c1ccc2c(c1)-c1ccccc1C2(F)F)c1cc(C(=N)N)cs1` [Compound 202, (2S,4R)—N—((R)-1-(4-carbamimidoylthiophen-2-yl)ethyl)-1-((9,9-difluoro-9H-fluorene-3-carbonyl)glycyl)-4-fluoropyrrolidine-2-carboxamide]: the IC50 was less than 100 nM.

In the case of `C=C1C[C@@H](C(=O)N[C@H](C)c2cc(C(=N)N)cs2)N(C(=O)CNC(=O)c2ccc3c(c2)-c2ccccc2C3(F)F)C1` [Compound 203, (S)—N—((R)-1-(4-carbamimidoylthiophen-2-yl)ethyl)-1-((9,9-difluoro-9H-fluorene-3-carbonyl)glycyl)-4-methylenepyrrolidine-2-carboxamide], the IC50 is less than 100 nM.

`C[C@@H](NC(=O)[C@@H]1CC2(CN1C(=O)CNC(=O)c1ccc3c(c1)-c1ccccc1C3OC(F)F)OCCO2)c1cc(C(=N)N)cs1` (stereo partly drawn) [Compound 204]: the IC50 is less than 100 nM.

`C[C@@H](NC(=O)[C@@H]1C[C@@H](OC(F)F)CN1C(=O)CNC(=O)c1ccc2oc3ccccc3c2c1)c1cc(C(=N)N)cs1` [Compound 205, (2S,4R)—N—((R)-1-(4-carbamimidoylthiophen-2-yl)ethyl)-1-((dibenzo[b,d]furan-2-carbonyl)glycyl)-4-(difluoromethoxy)pyrrolidine-2-carboxamide]: the IC50 is less than 100 nM.

On to `C[C@@H](NC(=O)[C@@H]1C[C@@H](OC(F)F)CN1C(=O)CNC(=O)c1ccc2cc3ccccc3cc2c1)c1cc(C(=N)N)cs1` [Compound 206, (2S,4R)-1-((anthracene-2-carbonyl)glycyl)-N—((R)-1-(4-carbamimidoylthiophen-2-yl)ethyl)-4-(difluoromethoxy)pyrrolidine-2-carboxamide], for which the IC50 was less than 100 nM.

On to `N=C(N)c1csc(CNC(=O)[C@@H]2CC3(CN2C(=O)CNC(=O)c2ccc(-c4ccc(F)c(F)c4)cc2)OCCO3)c1` [Compound 207, (S)—N-((4-carbamimidoylthiophen-2-yl)methyl)-7-((3′,4′-difluoro-[1,1′-biphenyl]-4-carbonyl)glycyl)-1,4-dioxa-7-azaspiro[4.4]nonane-8-carboxamide], for which the IC50 was less than 100 nM.

For the compound `N=C(N)c1csc(CNC(=O)[C@@H]2CC3(CN2C(=O)CNC(=O)c2ccc(-c4cc(Cl)cc(Cl)c4)cc2)OCCO3)c1` [Compound 208, (S)—N-((4-carbamimidoylthiophen-2-yl)methyl)-7-((3′,5′-dichloro-[1,1′-biphenyl]-4-carbonyl)glycyl)-1,4-dioxa-7-azaspiro[4.4]nonane-8-carboxamide], the IC50 is less than 100 nM.

As for `N=C(N)c1csc(CNC(=O)[C@@H]2CC3(CN2C(=O)CNC(=O)c2ccc(-c4ccc(F)nc4)cc2)OCCO3)c1` [Compound 209, (S)—N-((4-carbamimidoylthiophen-2-yl)methyl)-7-((4-(6-fluoropyridin-3-yl)benzoyl)glycyl)-1,4-dioxa-7-azaspiro[4.4]nonane-8-carboxamide], the IC50 is less than 100 nM.

As for `Cc1ccc(-c2ccc(C(=O)NCC(=O)N3CC4(C[C@H]3C(=O)NCc3cc(C(=N)N)cs3)OCCO4)cc2)cc1F` [Compound 210, (S)—N-((4-carbamimidoylthiophen-2-yl)methyl)-7-((3′-fluoro-4′-methyl-[1,1′-biphenyl]-4-carbonyl)glycyl)-1,4-dioxa-7-azaspiro[4.4]nonane-8-carboxamide], the IC50 is less than 100 nM.

As a reminder, the IC50 is the concentration needed to halve the response being measured.
